# Assay results from patent US12662498B2 (priority 2017, dated 2026).
# Assay: ICH stability study of psilocybin batches (appearance, water content, purity, assay)
# [1] = T = 1 month, 2-8° C., listed as 170231
# [2] = T = 1 month, 25° C./60% RH, listed as 170231
# [3] = T = 1 month, 40° C./75% RH, listed as 170231
# [4] = T = 3 months, 2-8° C., listed as 170231
# [5] = T = 3 months, 25° C./60% RH, listed as 170231
# [6] = T = 3 months, 40° C./75% RH, listed as 170231
smiles,measurement,setting,value
CN(C)CCc1c[nH]c2cccc(OP(=O)(O)O)c12 [Batch 170231],Assay by HPLC (on a dry basis),T = 0,98.65% ^w/w % w/w
same,Impurities LT 0.05%,T = 0,0.22%
same,Impurities by HPLC: RRT0.69,T = 0,LT 0.05%
same,Impurities by HPLC: RRT 1.49,T = 0,0.06%
same,Impurities by HPLC: RRT 1.62 (Psilocin),T = 0,0.39%
same,Impurities by HPLC: RRT 1.70,T = 0,0.05%
same,Impurity at RRT 1.89,T = 0,LT 0.05%
same,Impurity at RRT 2.45,T = 0,LT 0.05%
same,Chemical Purity By HPLC,"T = 0, listed as 170231",99.28%
same,Total Impurities,"T = 0, listed as 170231",0.72%
same,Water content by loss on drying,"T = 0, listed as 170231",0.32% ^w/w % w/w
same,Assay by HPLC (on a dry basis),"T = 1 month, 2-8° C.",98.76% ^w/w % w/w
same,Impurities LT 0.05%,"T = 1 month, 2-8° C.",0.39%
same,Impurities by HPLC: RRT 1.49,"T = 1 month, 2-8° C.",0.05%
same,Impurities by HPLC: RRT 1.62 (Psilocin),"T = 1 month, 2-8° C.",0.36%
same,Impurities by HPLC: RRT 1.70,"T = 1 month, 2-8° C.",LT 0.05%
same,Impurity at RRT 1.89,"T = 1 month, 2-8° C.",LT 0.05%
same,Impurity at RRT 2.45,"T = 1 month, 2-8° C.",LT 0.05%
same,Chemical Purity By HPLC,[1],99.20%
same,Total Impurities,[1],0.80%
same,Water content by loss on drying,[1],0.27% ^w/w % w/w
same,Assay by HPLC (on a dry basis),"T = 1 month, 25° C./60% RH",97.98% ^w/w % w/w
same,Impurities LT 0.05%,"T = 1 month, 25° C./60% RH",0.42%
same,Impurities by HPLC: RRT 1.49,"T = 1 month, 25° C./60% RH",0.05%
same,Impurities by HPLC: RRT 1.62 (Psilocin),"T = 1 month, 25° C./60% RH",0.37%
same,Impurities by HPLC: RRT 1.70,"T = 1 month, 25° C./60% RH",LT 0.05%
same,Impurity at RRT 1.89,"T = 1 month, 25° C./60% RH",LT 0.05%
same,Impurity at RRT 2.45,"T = 1 month, 25° C./60% RH",LT 0.05%
same,Chemical Purity By HPLC,[2],99.16%
same,Total Impurities,[2],0.84%
same,Water content by loss on drying,[2],0.17% ^w/w % w/w
same,Assay by HPLC (on a dry basis),"T = 1 month, 40° C./75% RH",98.52% ^w/w % w/w
same,Impurities LT 0.05%,"T = 1 month, 40° C./75% RH",0.41%
same,Impurities by HPLC: RRT 1.49,"T = 1 month, 40° C./75% RH",0.06%
same,Impurities by HPLC: RRT 1.62 (Psilocin),"T = 1 month, 40° C./75% RH",0.36%
same,Impurities by HPLC: RRT 1.70,"T = 1 month, 40° C./75% RH",LT 0.05%
same,Impurity at RRT 1.89,"T = 1 month, 40° C./75% RH",LT 0.05%
same,Impurity at RRT 2.45,"T = 1 month, 40° C./75% RH",LT 0.05%
same,Chemical Purity By HPLC,[3],99.17%
same,Total Impurities,[3],0.83%
same,Water content by loss on drying,[3],0.19% ^w/w % w/w
same,Assay by HPLC (on a dry basis),"T = 3 months, 2-8° C.",98.45% ^w/w % w/w
same,Impurities LT 0.05%,"T = 3 months, 2-8° C.",0.22%
same,Impurities by HPLC: RRT0.69,"T = 3 months, 2-8° C.",0.05%
same,Impurities by HPLC: RRT 1.49,"T = 3 months, 2-8° C.",0.05%
same,Impurities by HPLC: RRT 1.62 (Psilocin),"T = 3 months, 2-8° C.",0.37%
same,Impurities by HPLC: RRT 1.70,"T = 3 months, 2-8° C.",LT 0.05%
same,Impurity at RRT 1.89,"T = 3 months, 2-8° C.",LT 0.05%
same,Impurity at RRT 2.45,"T = 3 months, 2-8° C.",LT 0.05%
same,Chemical Purity By HPLC,[4],99.30%
same,Total Impurities,[4],0.70%
same,Water content by loss on drying,[4],0.17% ^w/w % w/w
same,Assay by HPLC (on a dry basis),"T = 3 months, 25° C./60% RH",99.46% ^w/w % w/w
same,Impurities LT 0.05%,"T = 3 months, 25° C./60% RH",0.27%
same,Impurities by HPLC: RRT0.69,"T = 3 months, 25° C./60% RH",LT 0.05%
same,Impurities by HPLC: RRT 1.49,"T = 3 months, 25° C./60% RH",0.05%
same,Impurities by HPLC: RRT 1.62 (Psilocin),"T = 3 months, 25° C./60% RH",0.36%
same,Impurities by HPLC: RRT 1.70,"T = 3 months, 25° C./60% RH",LT 0.05%
same,Impurity at RRT 1.89,"T = 3 months, 25° C./60% RH",LT 0.05%
same,Impurity at RRT 2.45,"T = 3 months, 25° C./60% RH",LT 0.05%
same,Chemical Purity By HPLC,[5],99.31%
same,Total Impurities,[5],0.69%
same,Water content by loss on drying,[5],0.01% ^w/w % w/w
same,Assay by HPLC (on a dry basis),"T = 3 months, 40° C./75% RH",98.64% ^w/w % w/w
same,Impurities LT 0.05%,"T = 3 months, 40° C./75% RH",0.34%
same,Impurities by HPLC: RRT0.69,"T = 3 months, 40° C./75% RH",LT 0.05%
same,Impurities by HPLC: RRT 1.49,"T = 3 months, 40° C./75% RH",0.06%
same,Impurities by HPLC: RRT 1.62 (Psilocin),"T = 3 months, 40° C./75% RH",0.39%
same,Impurities by HPLC: RRT 1.70,"T = 3 months, 40° C./75% RH",LT 0.05%
same,Impurity at RRT 1.89,"T = 3 months, 40° C./75% RH",LT 0.05%
same,Impurity at RRT 2.45,"T = 3 months, 40° C./75% RH",LT 0.05%
same,Chemical Purity By HPLC,[6],99.17%
same,Total Impurities,[6],0.79%
same,Water content by loss on drying,[6],0.19% ^w/w % w/w
same,Appearance,"T = 6 months, 2-8° C.",An off white solid.
same,Assay by HPLC (on a dry basis),"T = 6 months, 2-8° C.",97.97% ^w/w % w/w
same,Chemical Purity By HPLC,"T = 6 months, 2-8° C.",99.20%
same,Impurities LT 0.05%,"T = 6 months, 2-8° C.",0.32%
same,Impurities by HPLC: RRT0.69,"T = 6 months, 2-8° C.",0.06%
same,Impurities by HPLC: RRT 1.49,"T = 6 months, 2-8° C.",LT 0.05%
